Measurements reported in patent publication US20230149409A1, “TREATMENT OF HUMAN PAPILLOMAVIRUS-ASSOCIATED CANCERS BY PD-L1 INHIBITORS” (priority 2021, published 2023).

How the values were obtained:
Format in all cases: cell-based
[1] = tested on: PD-L1 (U2OS/PD-L1 cells, Jurkat-PD-1-SHP cells); test: Src Homology Region 2 Domain-containing Phosphatase (SHP) assay; conditions: Homo sapiens; U2OS/PD-L1 + Jurkat-PD-1-SHP cells, 2 hours
Method in brief: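 U2OS/PD-L1 cells and Jurkat-PD-1-SHP cells (5,000 each per well) were co-incubated with compound in RPMI1640/1% FBS for 2 h at 37° C, with final DMSO 0.05%. PathHunter chemiluminescence was read after 1 h at room temperature. IC50 was fitted from percent of DMSO-control activity against log concentration.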

[2] = tested on: PD-L1 (PD-L1 aAPC/CHO-K1 cells, Jurkat-PD-1-NFAT effector cells); test: Nuclear Factor of Activated T-cells (NFAT) assay; conditions: Cricetulus griseus; PD-L1 aAPC/CHO-K1 + Jurkat-PD-1-NFAT cells, 24 hours
Method in brief: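 PD-L1 aAPC/CHO-K1 cells (8000/well) were treated with compound (0.4% DMSO, 2 µM final), then co-cultured with Jurkat-PD-1-NFAT effector cells for 24 hours at 37° C. NFAT luciferase luminescence was normalized to DMSO as fold induction. Maximum induction is relative to the control compound's top FOI; EC50 is from curve fitting.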

[3] = molecular target: T1, PD-L1 on CD14+ cells in human whole blood (Homo sapiens, UniProt Q9NZQ7); test: PD-L1 whole blood internalization assay; conditions: 1 ng/mL interferon γ, CD14+ gated, 24 hour
T1 construct: Cells were gated on CD14+ (BD Biosciences) and PD-L1 expression determined by mean fluorescence intensity; host or cells: CD14+ cells in normal human whole blood, stimulated with human interferon gamma
Method in brief: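 Normal human whole blood exposed to compound concentration range plus 1 ng/mL IFN-γ for 18–20 h at 37 °C, then stained for PD-L1 and CD14, red cells lysed/fixed. PD-L1 MFI measured on CD14+ gated cells by flow cytometry; IC50 from percent inhibition versus log concentration fit.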

T1 sequence (Q9NZQ7 19-290): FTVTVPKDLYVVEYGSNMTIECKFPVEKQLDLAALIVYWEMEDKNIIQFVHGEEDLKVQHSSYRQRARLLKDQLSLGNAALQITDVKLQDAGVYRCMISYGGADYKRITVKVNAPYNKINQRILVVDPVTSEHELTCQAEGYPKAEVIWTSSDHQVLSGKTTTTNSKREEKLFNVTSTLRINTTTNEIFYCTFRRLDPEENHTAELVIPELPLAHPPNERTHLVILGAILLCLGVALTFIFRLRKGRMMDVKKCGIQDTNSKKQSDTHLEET

SMILES | IC50 [1] [nM] | EC50 [2] [nM] | IC50 [3] [nM]
Cc1c(Nc2nccc3cc(CN4CC[C@@H](O)C4)cnc23)cccc1-c1cccc(-c2nc3cc(CN4CC[C@@H](C(=O)O)C4)cc(C#N)c3o2)c1C [Compound 1, (R)-1-((7-cyano-2-(3′-(3-(((R)-3-hydroxypyrrolidin-1-yl)methyl)-1,7-naphthyridin-8-ylamino)-2,2′-dimethylbiphenyl-3-yl)benzo[d]oxazol-5-yl)methyl)pyrrolidine-3-carboxylic acid] | < 10 | < 100 | < 500
Cn1c(C(=O)Nc2cccc(-c3cccc(NC(=O)c4nc5c(n4C)CCN(CCC46CCC(C(=O)O)(CC4)C6)C5)c3Cl)c2Cl)nc2c1CCN(CCC13CCC(C(=O)O)(CC1)C3)C2 [Compound 30, 4,4′-(((((2,2′-dichloro-[1,1′-bipheiryl]-3,3′-diyl)bis(azanediyl))bis(carbonyl))bis(1-methyl-1,4,6,7-tetrahydro-5H-imidazo[4,5-c]pyridine-2,5-diyl))bis(ethane-2,1-diyl))bis(bicyclo[2.2.1]heptane-1-carboxylic acid)] | < 10 | < 100 | < 100
